Values joined by “and” are separate entries in the source; they are usually repeats but may differ in a detail not shown here. Identical values can stand only once.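 Each compound was tested at five concentrations against cells in 96-well plates for 48 hours. GI50 is the concentration that inhibits growth by half. TGI denotes the concentration required for complete inhibition of growth.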

Test systems include MDA-N; XF 498 CNS; DMS 273 small cell lung; SNB-78 CNS; LXFL 529 NSCLC; HOP-18 NSCLC; M19-MEL melanoma; DMS 114 small cell lung; RXF-631 renal; SN12K1 renal; P388 leukemia; P388/ADR leukemia.
What all share (experiment): NCI tumour cell line growth inhibition, 48 h

`O=C(O)c1ccc(S(=O)(=O)N=Nc2c(O)[nH]c3ccccc23)cc1` displayed a TGI with MDA-N above 100 µM.

For `CCc1ccccc1-n1c2nc(=O)n(C)c(=O)c-2nc2ccccc21`, the TGI amounted to 22 µM in the test on XF 498 CNS; 22.1 µM in the test with DMS 273 small cell lung; 38.5 µM in the test on SNB-78 CNS; 24.8 µM in the test with LXFL 529 NSCLC; 25 µM in the test with HOP-18 NSCLC; 3.69 µM in the test with M19-MEL melanoma. Besides, the TGI in the test on DMS 114 small cell lung was found to be 14.2 µM.

On to `O=C(/C=C/c1c(O)ccc2ccccc12)c1cccc2ccccc12`, for which the TGI in the test with XF 498 CNS was above 100 µM; with DMS 273 small cell lung, above 100 µM; in the test on SNB-78 CNS, above 100 µM; with LXFL 529 NSCLC, above 100 µM; in the test with HOP-18 NSCLC, above 100 µM; in the test with M19-MEL melanoma, 71.9 µM. In the test with DMS 114 small cell lung, this compound returned a TGI above 100 µM.

For `O=C(CCc1ccccc1)On1nnc2ccccc2c1=O`, the TGI with DMS 273 small cell lung, with SNB-78 CNS, in the test with LXFL 529 NSCLC, in the test on M19-MEL melanoma and in the test with DMS 114 small cell lung was above 100 µM throughout.

Take `O=C1NC(=O)C2(CCC(O)C2)c2cc[n+]([O-])cc21` (centres undefined): in the test on MDA-N, the TGI was above 100 µM.

In the case of `CC1CCC2C(C)C3C(CC4C5CC=C6CC(OC7OC(CO)C(O)C(OC8OC(CO)C(O)C(O)C8O)C7OC7OC(C)C(O)C(O)C7O)CCC6(C)C5CCC43C)N2C1` (centres undefined), in the test with MDA-N, the GI50 was above 2.5 µg/mL; the TGI was 23.7 µM and > 2.5 µg/mL.

On to `O=C(O)C(Br)C(Br)c1ccccc1[N+](=O)[O-]` (centres undefined), for which the TGI in the test on MDA-N was above 100 µM.

On to `COc1ccc2[nH]c(-c3cccc(N(C)C)c3)cc(=O)c2c1`, for which, in the test with MDA-N, the TGI was found to be 0.156 µM.

In the test on MDA-N, `CCCCSCc1nc2nc(Cl)c(Cl)nc2[nH]1` had a TGI of 65.9 µM.

As to `COc1ccc(/C(Cl)=C(\C=O)c2ccc(Br)cc2)cc1OC`, the TGI with XF 498 CNS was 39.8 µM; with DMS 273 small cell lung it was above 100 µM; in the test on RXF-631 renal it was above 100 µM; with SNB-78 CNS it was above 100 µM; in the test on LXFL 529 NSCLC, above 100 µM; with HOP-18 NSCLC, above 100 µM. In the test with M19-MEL melanoma, this compound returned a TGI above 100 µM.

Take `O=C1OC(c2ccccc2)=N/C1=C\c1c(O)cc(O)cc1O`: the TGI in the test on DMS 273 small cell lung, in the test on SNB-78 CNS, with LXFL 529 NSCLC, with HOP-18 NSCLC, in the test with M19-MEL melanoma and in the test on DMS 114 small cell lung was above 100 µM in each case.

For the compound `COc1cc(OC)c(OC)cc1/C=C1\C=Cc2ccccc21`, the TGI with MDA-N came to 58.2 µM.

Regarding `Cc1cccc2c1Oc1cc(Cl)ccc1C2NC(=O)CN(C)C` (centres undefined), the TGI in the test with DMS 273 small cell lung is above 100 µM; in the test on SNB-78 CNS, above 100 µM; with LXFL 529 NSCLC, above 100 µM; in the test with M19-MEL melanoma, 47.6 µM; with DMS 114 small cell lung, above 100 µM.

Take `CC1=Nc2c([nH]c(=S)[nH]c2=O)NC(c2ccc(Cl)c(Cl)c2)C1` (centres undefined): the TGI in the test on XF 498 CNS is above 100 µM; in the test on DMS 273 small cell lung, above 72.9 µM; in the test with SNB-78 CNS, above 100 µM; in the test with LXFL 529 NSCLC, 37.8 µM; with HOP-18 NSCLC it was above 100 µM; in the test on M19-MEL melanoma it was 34.2 µM. In the test on DMS 114 small cell lung, this compound gave a TGI above 81 µM.

For the compound `O=C(N/C(=C\c1ccc(Br)cc1)c1nc2ccccc2s1)c1ccccc1`, the TGI in the test with XF 498 CNS, in the test with DMS 273 small cell lung, in the test with RXF-631 renal, in the test on SNB-78 CNS, in the test on LXFL 529 NSCLC and with HOP-18 NSCLC was above 100 µM each time. Further, the TGI in the test on M19-MEL melanoma and in the test with DMS 114 small cell lung was above 100 µM throughout.

Consider `Cc1[nH]c(=O)nc(CC(O)(c2ccccc2)c2ccccc2)c1-c1ccccc1`, for which the TGI in the test on DMS 273 small cell lung, with RXF-631 renal, in the test with SNB-78 CNS, in the test on LXFL 529 NSCLC, with HOP-18 NSCLC and in the test with M19-MEL melanoma was above 100 µM throughout. The same compound displayed a TGI in the test with DMS 114 small cell lung above 100 µM.

In the case of `O=C1C=CN(C2OC(CO)C(O)C2O)C(=O)C1` (centres undefined), the GI50 is 409 µM in the test with XF 498 CNS; above 625 µM with DMS 273 small cell lung; above 625 µM with HOP-18 NSCLC; 24.7 µM and 14.4 µM in the test on SN12K1 renal. The TGI with XF 498 CNS was 1940 µM; with DMS 273 small cell lung it was above 2500 µM; in the test on MDA-N, above 2500 µM; in the test on HOP-18 NSCLC, above 2500 µM; in the test on M19-MEL melanoma, 1370 µM; in the test with SN12K1 renal, 625 µM and > 810 µM. The values for the TGI with P388 leukemia and in the test on P388/ADR leukemia were 52.5 µM and above 992 µM, respectively.

For `O=C(O)c1ccc(N=Nc2cc(S(=O)(=O)O)c3cccnc3c2O)cc1`, the TGI in the test on XF 498 CNS, in the test with DMS 273 small cell lung, in the test on SNB-78 CNS, in the test on M19-MEL melanoma and in the test on DMS 114 small cell lung was above 100 µM in each case.

As to `c1ccc2cc(OCC3CO3)c(OCC3CO3)cc2c1` (centres undefined), the TGI in the test with MDA-N came to 22.9 µM.

For the compound `N#CCC(=O)N/N=C1/C(=O)NC(=O)C(=O)C1c1nc2ccccc2s1` (centres undefined), the TGI in the test with DMS 273 small cell lung, with RXF-631 renal, in the test on SNB-78 CNS, with LXFL 529 NSCLC, in the test with HOP-18 NSCLC and with M19-MEL melanoma was above 100 µM each time. In the test with DMS 114 small cell lung, this compound yielded a TGI above 100 µM.

Consider `CCOC(=O)C1=C(NC(C)(C)C)OCC1=O`, for which the TGI with XF 498 CNS, in the test on RXF-631 renal, in the test on SNB-78 CNS and in the test on LXFL 529 NSCLC was above 100 µM each time.

For `CN(/N=C/c1ccnc2ccccc12)c1ccc([N+](=O)[O-])cc1[N+](=O)[O-]`, the TGI in the test with XF 498 CNS, in the test with DMS 273 small cell lung, in the test on SNB-78 CNS, in the test on LXFL 529 NSCLC, in the test with HOP-18 NSCLC and with M19-MEL melanoma was above 100 µM throughout. In the test with DMS 114 small cell lung, this compound came in with a TGI above 100 µM.

For `CN(C)c1nc(N(C)C)n2nc(-c3ccccc3[N+](=O)[O-])nc2n1`, the TGI with XF 498 CNS, with DMS 273 small cell lung, in the test on SNB-78 CNS, with LXFL 529 NSCLC, in the test with HOP-18 NSCLC and in the test on M19-MEL melanoma was above 100 µM throughout. The compound also displayed a TGI with DMS 114 small cell lung above 100 µM.

Compound `O=C(N=Nc1c(O)[nH]c2c(Cl)cc(Cl)cc12)c1ccncc1` had a TGI with MDA-N of 29.1 µM.

Turning to `Fc1ccc(F)c(C2SCc3nc4ccccc4n32)c1` (centres undefined), the TGI in the test with DMS 273 small cell lung is 64.3 µM; in the test on SNB-78 CNS it was above 100 µM; in the test on LXFL 529 NSCLC, above 100 µM; in the test with HOP-18 NSCLC, above 100 µM; in the test with M19-MEL melanoma, above 100 µM; in the test with DMS 114 small cell lung, 68.8 µM.

As for `COc1ccc(/C=C/c2nc(=S)[nH][nH]2)cc1`, the TGI in the test with XF 498 CNS, with DMS 273 small cell lung, in the test on RXF-631 renal, with SNB-78 CNS, in the test on LXFL 529 NSCLC and with M19-MEL melanoma was above 100 µM throughout. In addition, the TGI in the test on DMS 114 small cell lung is above 100 µM.

As to `COC(=O)C1=C(c2cc(OC)c(OC)c(OC)c2)OC(c2cc(OC)c(OC)c(OC)c2)C1COC(C)=O` (centres undefined), the TGI with XF 498 CNS was above 100 µM; in the test on DMS 273 small cell lung it was above 100 µM; in the test with RXF-631 renal, 45.1 µM; in the test on SNB-78 CNS, above 100 µM; in the test on LXFL 529 NSCLC, above 100 µM; with M19-MEL melanoma, above 100 µM. This compound displayed a TGI with DMS 114 small cell lung above 100 µM.

For `OCC(O)COc1c(Cl)ccc(Cl)c1Cl` (centres undefined), the TGI in the test on XF 498 CNS, in the test on DMS 273 small cell lung, with SNB-78 CNS, in the test on LXFL 529 NSCLC, with HOP-18 NSCLC and with M19-MEL melanoma was above 100 µM throughout. Besides, the TGI with DMS 114 small cell lung is above 100 µM.

For the compound `COc1ccc(/C(Cl)=C(\C=O)c2ccc(OC)c(OC)c2)cc1OC`, the TGI in the test with XF 498 CNS, in the test on DMS 273 small cell lung, in the test on MDA-N, in the test on SNB-78 CNS, in the test on HOP-18 NSCLC and with M19-MEL melanoma was above 100 µM in each case. Moreover, the TGI in the test with SN12K1 renal is above 100 µM; in the test with P388 leukemia, above 100 µM; in the test on DMS 114 small cell lung, above 100 µM; in the test with P388/ADR leukemia it was above 85.8 µM.

In turn, `O=[N+]([O-])c1cc(Cl)cc2c1nc(NCCO)c1ccccc12` returned a TGI with MDA-N above 100 µM.

As for `O=C(CCC(=O)N/N=C/c1ccccc1O)N/N=C/c1ccccc1O`, the TGI with DMS 273 small cell lung, in the test on SNB-78 CNS, in the test with LXFL 529 NSCLC, in the test with M19-MEL melanoma and with DMS 114 small cell lung was above 100 µM throughout.

For the compound `C=C1C(=O)O[C@H]2[C@H]1[C@H](OC(=O)/C(C)=C\C)C[C@]1(CO1)[C@@H]1[C@H](OC(C)=O)C=C(C)[C@]21O`, the TGI in the test on MDA-N worked out at 34.8 µM.

As for `COC1(OC)CC2C(=O)N(Cc3ccccc3)C1CC2S(=O)(=O)c1ccccc1` (centres undefined), the TGI was 98.7 µM with XF 498 CNS; above 100 µM with DMS 273 small cell lung; above 100 µM in the test on HOP-18 NSCLC; above 100 µM with M19-MEL melanoma; above 100 µM in the test on DMS 114 small cell lung.

In the test with MDA-N, `CC1CCCN(CC(O)CN2CCCc3ccccc32)C1` (centres undefined) gave a TGI above 100 µM.

Turning to `CCOC(=O)CC1=NC(=Nc2cc(Cl)ccc2Cl)SC1`, the TGI in the test on XF 498 CNS, with DMS 273 small cell lung, in the test on SNB-78 CNS, with LXFL 529 NSCLC, with HOP-18 NSCLC and in the test on M19-MEL melanoma was above 100 µM each time. In the test with DMS 114 small cell lung, the TGI is above 100 µM.

In the case of `C[C@H]1COC2(c3ccccc3)CCC(=O)N12` (some centres undefined), the TGI with XF 498 CNS, in the test with DMS 273 small cell lung, in the test with SNB-78 CNS, in the test on HOP-18 NSCLC, with M19-MEL melanoma and in the test with DMS 114 small cell lung was above 100 µM throughout.

For the compound `CCc1ccc(/C(C)=N/NC(N)=S)cc1`, the TGI was 82.6 µM in the test with XF 498 CNS; above 100 µM in the test with SNB-78 CNS; above 100 µM with HOP-18 NSCLC; above 100 µM with M19-MEL melanoma; above 100 µM in the test with DMS 114 small cell lung.

Regarding `O=C(CCCNC(=O)OCc1ccccc1)OCc1ccc2c(c1)C(=O)c1ccccc1C2=O`, the TGI in the test on DMS 273 small cell lung was above 100 µM; in the test on RXF-631 renal it was above 100 µM; in the test with SNB-78 CNS it was above 94.3 µM; with LXFL 529 NSCLC it was above 100 µM; with DMS 114 small cell lung it was above 100 µM.

Source of the values: PubChem BioAssay (NCI).
